Source: patent US11311520B2, “Substituted dihydroimidazopyridinediones as MKNK1 and MKNK2 inhibitors” (Bayer Pharma Aktiengesellschaft, priority 2017, dated 2022)
Counter-ions that a name gives are not always drawn.

The compounds below were run against human full-length MKNK1 (Homo sapiens (Human), UniProt Q9BUB5, T344D) (assay: MKNK1 kinase high ATP assay (TR-FRET)). Details: 2 mM ATP, 15 min preincubation with enzyme, GST-MKNK1 (T344D).
Type: biochemical
Description: MKNK1 Kinase High ATP Assay
MKNK1-inhibitory activity at high ATP of compounds of the present invention after their preincubation with MKNK1 was quantified employing the TR-FRET-based MKNK1 high ATP assay as described in the following paragraphs.
A recombinant fusion protein of Glutathione-S-Transferase (GST, N-terminally) and human full-length MKNK1 (amino acids 1-424 and T344D of accession number BAA 19885.1), expressed in insect cells using baculovirus expression system and purified via glutathione sepharose affinity chromatography, was purchased from Carna Biosciences (product no 02-145) and used as enzyme. As substrate for the kinase reaction the biotinylated peptide biotin-Ahx-IKKRKLTRRKSLKG (SEQ ID NO: 1) (C-terminus in amide form) was used, which can be purchased e.g. from the company Biosyntan (Berlin-Buch, Germany)
For the assay 50 nL of a 100 fold concentrated solution of the test compound in DMSO was pipetted into a black low volume 384 well microtiter plate (Greiner Bio-One, Frickenhausen, Germany), 2 μL of a solution of MKNK1 in aqueous assay buffer [50 mM HEPES pH 7.5, 5 mM MgCl2, 1.0 mM dithiothreitol, 0.005% (v/v) Nonidet-P40 (Sigma)] was added and the mixture was incubated for […] at 22° C. to allow pre-binding of the test compounds to the enzyme before the start of the kinase reaction. Then the kinase reaction was started by the addition of 3 μL of a solution of adenosine-tri-phosphate (ATP, 3.3 mM=>final conc. in the 5 μL assay volume is 2 mM) and substrate (0.1 μM=>final conc. in the 5 μL assay volume is 0.06 μM) in assay buffer and the resulting mixture was incubated for a reaction time of 30 min at 22° C. The concentration of MKNK1 was adjusted depending of the activity of the enzyme lot and was chosen appropriate to have the assay in the linear range, typical concentrations were in the range of 0.003 μg/mL. The reaction was stopped by the addition of 5 μL of a solution of TR-FRET detection reagents (5 nM streptavidine-XL665 [Cisbio Bioassays, Codolet, France] and 1 nM anti-ribosomal protein S6 (pSer236)-antibody from Invitrogen [#44921G] and 1 nM LANCE EU-W1024 labeled ProteinG [Perkin-Elmer, product no. AD0071]) in an aqueous EDTA-solution (100 mM EDTA, 0.1% (w/v) bovine serum albumin in 50 mM HEPES pH 7.5).
The resulting mixture was incubated for 1 h at 22° C. to allow the formation of complex between the phosphorylated biotinylated peptide and the detection reagents. Subsequently the amount of phosphorylated substrate was evaluated by measurement of the resonance energy transfer from the Eu-chelate to the streptavidine-XL. Therefore, the fluorescence emissions at 620 nm and 665 nm after excitation at 350 nm were measured in a TR-FRET reader, e.g. a Rubystar (BMG Labtechnologies, Offenburg, Germany) or a Viewlux (Perkin-Elmer). The ratio of the emissions at 665 nm and at […] was taken as the measure for the amount of phosphorylated substrate. The data were normalised (enzyme reaction without inhibitor=0% inhibition, all other assay components but no enzyme=100% inhibition).

human full-length MKNK1, sequence (Q9BUB5 other isoform, or with tags, fused parts or gaps T344D): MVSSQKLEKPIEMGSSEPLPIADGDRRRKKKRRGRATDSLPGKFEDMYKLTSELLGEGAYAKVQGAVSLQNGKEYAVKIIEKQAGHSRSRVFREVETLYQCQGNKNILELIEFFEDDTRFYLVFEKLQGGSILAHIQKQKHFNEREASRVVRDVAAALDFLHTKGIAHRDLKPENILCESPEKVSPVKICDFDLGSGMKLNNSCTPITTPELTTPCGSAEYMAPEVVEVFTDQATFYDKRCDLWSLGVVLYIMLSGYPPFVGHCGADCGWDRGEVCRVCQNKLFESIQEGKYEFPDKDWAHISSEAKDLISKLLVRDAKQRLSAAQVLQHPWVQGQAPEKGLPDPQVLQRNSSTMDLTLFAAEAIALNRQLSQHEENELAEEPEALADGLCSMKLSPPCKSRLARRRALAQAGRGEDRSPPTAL

SMILES	IC50 [nM]
CCCNC(=O)Nc1nccc(Nc2cc(C)c3n(c2=O)C2(CCCCC2)NC3=O)n1 [Example 23, 1-{4-[(8′-Methyl-1′,5′-dioxo-1′,5′-dihydro-2′H-spiro[cyclohexane-1,3′-imidazo[1,5-a]pyridin]-6′-yl)amino]pyrimidin-2-yl}-3-propylurea]	337
Cc1cc(Nc2ncnc3[nH]cnc23)c(=O)n2c1C(=O)NC21CCCCC1 [Example 24, 8′-methyl-6′-(9H-purin-6-ylamino)-2′H-spiro[cyclohexane-1,3′-imidazo[1,5-a]pyridine]-1′,5′-dione]	1.5
Cc1cc(Nc2ncnc3sc(C(=O)NCCN(C)C)cc23)c(=O)n2c1C(=O)NC21CCCCC1 [Example 25, N-[2-(Dimethylamino)ethyl]-4-[(8′-methyl-1′,5′-dioxo-1′,5′-dihydro-2′H-spiro[cyclohexane-1,3′-imidazo[1,5-a]pyridin]-6′-yl)amino]thieno[2,3-d]pyrimidine-6-carboxamide]	1.9
Cc1cc(Nc2ncnc3sc(C(=O)N4CC(C#N)C4)cc23)c(=O)n2c1C(=O)NC21CCCCC1 [Example 26, 1-({4-[(8′-Methyl-1′,5′-dioxo-1′,5′-dihydro-2′H-spiro[cyclohexane-1,3′-imidazo[1,5-a]pyridin]-6′-yl)amino]thieno[2,3-d]pyrimidin-6-yl}carbonyl)azetidine-3-carbonitrile]	5
Cc1cc(Nc2ncnc3sc(C(=O)N4CC(NC(=O)OC(C)(C)C)C4)cc23)c(=O)n2c1C(=O)NC21CCCCC1 [Example 27, tert-Butyl [1-({4-[(8′-methyl-1′,5′-dioxo-1′,5′-dihydro-2′H-spiro[cyclohexane-1,3′-imidazo[1,5-a]pyridin]-6′-yl)amino]thieno[2,3-d]pyrimidin-6-yl}carbonyl)azetidin-3-yl]carbamate]	4
Cc1cc(Nc2ncnc3sc(C(=O)N4CC(N)C4)cc23)c(=O)n2c1C(=O)NC21CCCCC1 [Example 28, 6′-({6-[(3-Aminoazetidin-1-yl)carbonyl]thieno[2,3-d]pyrimidin-4-yl}amino)-8′-methyl-2′H-spiro[cyclohexane-1,3′-imidazo[1,5-a]pyridine]-1′,5′-dione]	0.6
Cc1cc(Nc2ncnc3sc(C(=O)N4CC[C@@H](N(C)C)C4)cc23)c(=O)n2c1C(=O)NC21CCCCC1 [Example 29, 6′-[(6-{[(3R)-3-(Dimethylamino)pyrrolidin-1-yl]carbonyl}thieno[2,3-d]pyrimidin-4-yl)amino]-8′-methyl-2′H-spiro[cyclohexane-1,3′-imidazo[1,5-a]pyridine]-1′,5′-dione]	2.9
Cc1cc(Nc2ncnc3sc(C(=O)N4CC[C@H](N(C)C)C4)cc23)c(=O)n2c1C(=O)NC21CCCCC1 [Example 30, 6′-[(6-{[(3S)-3-(Dimethylamino)pyrrolidin-1-yl]carbonyl}thieno[2,3-d]pyrimidin-4-yl)amino]-8′-methyl-2′H-spiro[cyclohexane-1,3′-imidazo[1,5-a]pyridine]-1′,5′-dione]	3.2
Cc1cc(Nc2ncnc3c2CN(C(=O)OC(C)(C)C)C3)c(=O)n2c1C(=O)NC21CCCCC1 [Example 35, tert-Butyl 4-[(8′-methyl-1′,5′-dioxo-1′,5′-dihydro-2′H-spiro[cyclohexane-1,3′-imidazo[1,5-a]pyridin]-6′-yl)amino]-5,7-dihydro-6H-pyrrolo[3,4-d]pyrimidine-6-carboxylate]	4.1
Cc1cc(Nc2ncnc3c2CNC3)c(=O)n2c1C(=O)NC21CCCCC1 [Example 36, 6′-(6,7-Dihydro-5H-pyrrolo[3,4-d]pyrimidin-4-ylamino)-8′-methyl-2′H-spiro[cyclohexane-1,3′-imidazo[1,5-a]pyridine]-1′,5′-dione]	19.1
Cc1cc(Nc2ncnc3nc(CC(F)(F)F)[nH]c23)c(=O)n2c1C(=O)NC21CCCCC1 [Example 37, 8′-Methyl-6′-{[8-(2,2,2-trifluoroethyl)-7H-purin-6-yl]amino}-2′H-spiro[cyclohexane-1,3′-imidazo[1,5-a]pyridine]-1′,5′-dione]	10.3
Cc1cc(Nc2ncnc3oc(C)c(C)c23)c(=O)n2c1C(=O)NC21CCCCC1 [Example 38, 6′-[(5,6-Dimethylfuro[2,3-d]pyrimidin-4-yl)amino]-8′-methyl-2′H-spiro[cyclohexane-1,3′-imidazo[1,5-a]pyridine]-1′,5′-dione]	79.9
Cc1cc(Nc2ncnc(NC(=O)C3CC3)n2)c(=O)n2c1C(=O)NC2(C)C [Example 40, N-[4-[(3,3,8-Trimethyl-1,5-dioxo-1,2,3,5-tetrahydroimidazo[1,5-a]pyridin-6-yl)amino]-1,3,5-triazin-2-yl]cyclopropanecarboxamide]	20.7
Cc1cc(Nc2ncnc3cccc(F)c23)c(=O)n2c1C(=O)NC21CCCCC1 [Example 41, 6′-[(5-Fluoroquinazolin-4-yl)amino]-8′-methyl-2′H-spiro[cyclohexane-1,3′-imidazo[1,5-a]pyridine]-1′,5′-dione]	14
Cc1cc(Nc2ncnc3sc(C(=O)N4C[C@H]5C[C@@H]4CN5C)cc23)c(=O)n2c1C(=O)NC21CCCCC1 [Example 42, 8′-Methyl-6′-[(6-{[(1R,4R)-5-methyl-2,5-diazabicyclo[2.2.1]hept-2-yl]carbonyl}thieno[2,3-d]pyrimidin-4-yl)amino]-2′H-spiro[cyclohexane-1,3′-imidazo[1,5-a]pyridine]-1′,5′-dione]	1.9
Cc1cc(Nc2ncnc3sc(C(=O)N4C[C@@H]5C[C@H]4CN5C)cc23)c(=O)n2c1C(=O)NC21CCCCC1 [Example 43, 8′-Methyl-6′-[(6-{[(1S,4S)-5-methyl-2,5-diazabicyclo[2.2.1]hept-2-yl]carbonyl}thieno[2,3-d]pyrimidin-4-yl)amino]-2′H-spiro[cyclohexane-1,3′-imidazo[1,5-a]pyridine]-1′,5′-dione]	2.9
Cc1cc(Nc2ncnc3c2ncn3CCO)c(=O)n2c1C(=O)NC21CCCCC1 [Example 44, 6′-{[9-(2-Hydroxyethyl)-9H-purin-6-yl]amino}-8′-methyl-2′H-spiro[cyclohexane-1,3′-imidazo[1,5-a]pyridine]-1′,5′-dione]	465
CCOC(=O)Cn1cnc2c(Nc3cc(C)c4n(c3=O)C3(CCCCC3)NC4=O)ncnc21 [Example 45, Ethyl {6-[(8′-methyl-1′,5′-dioxo-1′,5′-dihydro-2′H-spiro[cyclohexane-1,3′-imidazo[1,5-a]pyridin]-6′-yl)amino]-9H-purin-9-yl}acetate]	603
Cc1cc(Nc2ncnc3ccc(Cl)cc23)c(=O)n2c1C(=O)NC21CCCCC1 [Example 46, 6′-[(6-Chloroquinazolin-4-yl)amino]-8′-methyl-2′H-spiro[cyclohexane-1,3′-imidazo[1,5-a]pyridine]-1′,5′-dione]	4.1
Cc1cc(Nc2ncnc3c2ncn3[C@H]2O[C@@H](CO)[C@H](O)[C@H]2O)c(=O)n2c1C(=O)NC21CCCCC1 [Example 47, N-[9-(beta-L-Arabinofuranosyl)-9H-purin-6-yl]-8′-methyl-1′,5′-dioxo-1′,5′-dihydro-2′H-spiro[cyclohexane-1,3′-imidazo[1,5-a]pyridin]-6′-amine]	47.2

Same assay, conditions: 2 mM ATP, 15 min preincubation with enzyme, GST-MKNK1 (T344D), hydrochloride

SMILES	IC50 [nM]
Cc1cc(Nc2ncnc3sccc23)c(=O)n2c1C(=O)NC21CCCCC1 [Example 31, 8′-Methyl-6′-(thieno[2,3-d]pyrimidin-4-ylamino)-2′H-spiro[cyclohexane-1,3′-imidazo[1,5-a]pyridine]-1′,5′-dione hydrochloride]	16.8
Cc1cc(Nc2ncnc3sc(C(=O)N(C)C)cc23)c(=O)n2c1C(=O)NC21CCCCC1 [Example 33, N,N-Dimethyl-4-[(8′-methyl-1′,5′-dioxo-1′,5′-dihydro-2′H-spiro[cyclohexane-1,3′-imidazo[1,5-a]pyridin]-6′-yl)amino]thieno[2,3-d]pyrimidine-6-carboxamide hydrochloride]	70.7
Cc1cc(Nc2ncnc3[nH]ncc23)c(=O)n2c1C(=O)NC21CCCCC1 [Example 34, 8′-Methyl-6′-(1H-pyrazolo[3,4-d]pyrimidin-4-ylamino)-2′H-spiro[cyclohexane-1,3′-imidazo[1,5-a]pyridine]-1′,5′-dione hydrochloride]	8.1
